Experimental data published in ChEMBL document CHEMBL1125408 (J Med Chem, 1992).
The source made the active and inactive calls.

Species on record: Rattus norvegicus
Assay: Concentration required to potentiate the contraction of isolated rat ileum produced by 1*10e-7 M ACh by 20 percent; IA= inactive
Format: functional

Structure (SMILES) | Ileal activity
CN(C)Cc1ccc(CSCc2ccc(CSCc3ccc(CN(C)C)o3)cc2)o1 | inactive
CN(C)Cc1ccc(CSCCCCCCSCc2ccc(CN(C)C)o2)o1 | inactive

Molecular target: T1, Muscarinic acetylcholine receptor M2 (Mus musculus, UniProt Q9ERZ4)
T1 sequence (Q9ERZ4 whole entry): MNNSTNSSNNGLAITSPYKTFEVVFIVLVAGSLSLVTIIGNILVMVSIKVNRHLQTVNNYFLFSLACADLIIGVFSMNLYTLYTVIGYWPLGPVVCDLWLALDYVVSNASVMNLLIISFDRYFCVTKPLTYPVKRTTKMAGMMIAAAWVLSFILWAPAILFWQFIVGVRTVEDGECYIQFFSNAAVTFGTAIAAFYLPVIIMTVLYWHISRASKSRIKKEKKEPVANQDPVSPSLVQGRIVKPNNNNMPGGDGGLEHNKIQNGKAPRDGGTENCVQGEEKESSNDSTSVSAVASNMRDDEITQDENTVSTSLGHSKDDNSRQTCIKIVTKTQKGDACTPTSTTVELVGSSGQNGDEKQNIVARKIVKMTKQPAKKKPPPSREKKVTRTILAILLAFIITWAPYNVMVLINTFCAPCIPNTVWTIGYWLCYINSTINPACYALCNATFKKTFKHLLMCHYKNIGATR
Assay: biochemical
Description: Compound was evaluated for the competitive inhibition of [3H]methylscopolamine binding to muscarinic acetylcholine receptor M2 of mouse cerebral cortex

Structure (SMILES) | IC50
CN(C)Cc1ccc(CSCCNc2cc(NCCSCc3ccc(CN(C)C)o3)c([N+](=O)[O-])cc2[N+](=O)[O-])o1 | 590 nM
CNC(=O)Oc1ccc2c(c1)[C@]1(C)CCN(C)[C@@H]1N2C [PHYSOSTIGMINE] | 160000 nM
CN(C)Cc1ccc(CSCCCCCCCCCSCc2ccc(CN(C)C)o2)o1 | 400 nM
CN(C)Cc1ccc(CSCCCCCCCCSCc2ccc(CN(C)C)o2)o1 | 540 nM
CN(C)Cc1ccc(CSCCN/C=C(/NCCSCc2ccc(CN(C)C)o2)[N+](=O)[O-])o1 | 500 nM
CN(C)Cc1ccc(CSCCCCCCCSCc2ccc(CN(C)C)o2)o1 | 710 nM

Species on record: Mus musculus
Assay: not given

Structure (SMILES) | Ki
CN(C)Cc1ccc(CSCCCCSCc2ccc(CN(C)C)o2)o1 | 1200 nM

Molecular target: T2, Muscarinic acetylcholine receptor M1 (Mus musculus, UniProt P12657)
T2 sequence (P12657 whole entry): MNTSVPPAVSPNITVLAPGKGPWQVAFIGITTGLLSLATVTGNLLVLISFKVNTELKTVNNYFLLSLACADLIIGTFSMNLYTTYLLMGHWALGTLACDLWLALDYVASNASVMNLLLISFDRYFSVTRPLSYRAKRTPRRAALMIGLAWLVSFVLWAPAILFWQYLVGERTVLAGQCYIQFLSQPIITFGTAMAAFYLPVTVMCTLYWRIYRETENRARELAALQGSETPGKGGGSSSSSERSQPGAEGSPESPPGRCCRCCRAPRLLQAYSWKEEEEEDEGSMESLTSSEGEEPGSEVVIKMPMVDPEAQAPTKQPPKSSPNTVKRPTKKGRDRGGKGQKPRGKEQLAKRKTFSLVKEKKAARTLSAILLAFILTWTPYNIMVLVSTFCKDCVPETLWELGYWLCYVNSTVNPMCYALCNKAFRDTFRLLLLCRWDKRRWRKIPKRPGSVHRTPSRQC
Assay: biochemical
Description: Compound was evaluated for the competitive inhibition of [3H]pirenzepine binding to muscarinic acetylcholine receptor M1 of mouse cerebral cortex

Structure (SMILES) | IC50
CN(C)Cc1ccc(CSCCNc2cc(NCCSCc3ccc(CN(C)C)o3)c([N+](=O)[O-])cc2[N+](=O)[O-])o1 | 490 nM
CNC(=O)Oc1ccc2c(c1)[C@]1(C)CCN(C)[C@@H]1N2C [PHYSOSTIGMINE] | 37000 nM
CN(C)Cc1ccc(CSCCCCCCCCCSCc2ccc(CN(C)C)o2)o1 | 560 nM
CN(C)Cc1ccc(CSCCCCCCCCSCc2ccc(CN(C)C)o2)o1 | 310 nM
CN(C)Cc1ccc(CSCCN/C=C(/NCCSCc2ccc(CN(C)C)o2)[N+](=O)[O-])o1 | 900 nM
CN(C)Cc1ccc(CSCCCCCCCSCc2ccc(CN(C)C)o2)o1 | 410 nM

Molecular target: T3, Cholinesterase (Homo sapiens, UniProt P06276)
Assay: not given

T3 sequence (P06276 whole entry): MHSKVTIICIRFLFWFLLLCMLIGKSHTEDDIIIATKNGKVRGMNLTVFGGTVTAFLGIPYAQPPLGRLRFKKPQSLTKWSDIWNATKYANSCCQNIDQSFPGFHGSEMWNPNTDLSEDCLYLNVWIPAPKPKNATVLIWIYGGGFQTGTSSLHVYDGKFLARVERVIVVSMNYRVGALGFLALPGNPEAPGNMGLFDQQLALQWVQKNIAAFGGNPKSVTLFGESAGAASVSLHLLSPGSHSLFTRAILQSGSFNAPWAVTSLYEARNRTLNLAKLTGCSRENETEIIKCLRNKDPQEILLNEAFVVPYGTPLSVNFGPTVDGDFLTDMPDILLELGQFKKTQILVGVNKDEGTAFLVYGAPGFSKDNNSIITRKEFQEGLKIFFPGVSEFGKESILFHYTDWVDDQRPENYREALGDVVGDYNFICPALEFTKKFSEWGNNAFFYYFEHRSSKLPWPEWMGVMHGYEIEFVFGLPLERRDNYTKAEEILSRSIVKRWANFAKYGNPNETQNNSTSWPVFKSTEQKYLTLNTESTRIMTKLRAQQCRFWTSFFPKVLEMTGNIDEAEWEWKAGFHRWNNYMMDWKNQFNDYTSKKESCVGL

Structure (SMILES) | IC50
CN(C)Cc1ccc(CSCCSCc2ccc(CN(C)C)o2)o1 | 4300 nM
CN(C)Cc1ccc(CSCCCSCc2ccc(CN(C)C)o2)o1 | 4100 nM
CN(C)Cc1ccc(CSCCCCSCc2ccc(CN(C)C)o2)o1 | 3100 nM
CN(C)Cc1ccc(CSCCCCCSCc2ccc(CN(C)C)o2)o1 | 3600 nM
CN(C)Cc1ccc(CSCc2ccc(-c3ccc(CSCc4ccc(CN(C)C)o4)cc3)cc2)o1 | 1300 nM
CN(C)Cc1ccc(CSCc2ccc(CSCc3ccc(CN(C)C)o3)cc2)o1 | 2700 nM
CN(C)Cc1ccc(CSCCCCCCSCc2ccc(CN(C)C)o2)o1 | 2900 nM
CN(C)Cc1ccc(CSCCNC(=NC#N)NCCSCc2ccc(CN(C)C)o2)o1 | 2400 nM

Species on record: Mus musculus
Assay: not given
Remark: another data set of the same source

Structure (SMILES) | Ki
CN(C)Cc1ccc(CSCCCCSCc2ccc(CN(C)C)o2)o1 | 20000 nM

Molecular target: T4, Muscarinic acetylcholine receptor M2 (Mus musculus) (UniProt Q9ERZ4)
T4 sequence (whole entry): T1 sequence (Q9ERZ4 whole entry)
Assay: Selectivity was defined as the ratio between M2-IC50/M1-IC50

Structure (SMILES) | Ratio
CN(C)Cc1ccc(CSCCCCCCCCCSCc2ccc(CN(C)C)o2)o1 | 0.71
CN(C)Cc1ccc(CSCCCCCCCCSCc2ccc(CN(C)C)o2)o1 | 1.8
CN(C)Cc1ccc(CSCCN/C=C(/NCCSCc2ccc(CN(C)C)o2)[N+](=O)[O-])o1 | 0.55
CN(C)Cc1ccc(CSCCCCCCCSCc2ccc(CN(C)C)o2)o1 | 1.7

Molecular target: T2, Muscarinic acetylcholine receptor M1
Assay: biochemical
Remark: another data set of the same source
Description: Compound was evaluated for the competitive inhibition of [3H]pirenzepine binding to Muscarinic acetylcholine receptor M1 of mouse cerebral cortex

Structure (SMILES) | IC50
CN(C)Cc1ccc(CSCCSCc2ccc(CN(C)C)o2)o1 | 1100 nM
CN(C)Cc1ccc(CSCCCSCc2ccc(CN(C)C)o2)o1 | 1100 nM
CN(C)Cc1ccc(CSCCCCSCc2ccc(CN(C)C)o2)o1 | 630 nM
CN(C)Cc1ccc(CSCCCCCSCc2ccc(CN(C)C)o2)o1 | 810 nM
CN(C)Cc1ccc(CSCc2ccc(-c3ccc(CSCc4ccc(CN(C)C)o4)cc3)cc2)o1 | 680 nM
CN(C)Cc1ccc(CSCc2ccc(CSCc3ccc(CN(C)C)o3)cc2)o1 | 540 nM
CN(C)Cc1ccc(CSCCCCCCSCc2ccc(CN(C)C)o2)o1 | 540 nM
CN(C)Cc1ccc(CSCCNC(=NC#N)NCCSCc2ccc(CN(C)C)o2)o1 | 660 nM

Molecular target: T5, Acetylcholinesterase (Homo sapiens, UniProt P22303)
Assay: not given

T5 sequence (P22303 whole entry): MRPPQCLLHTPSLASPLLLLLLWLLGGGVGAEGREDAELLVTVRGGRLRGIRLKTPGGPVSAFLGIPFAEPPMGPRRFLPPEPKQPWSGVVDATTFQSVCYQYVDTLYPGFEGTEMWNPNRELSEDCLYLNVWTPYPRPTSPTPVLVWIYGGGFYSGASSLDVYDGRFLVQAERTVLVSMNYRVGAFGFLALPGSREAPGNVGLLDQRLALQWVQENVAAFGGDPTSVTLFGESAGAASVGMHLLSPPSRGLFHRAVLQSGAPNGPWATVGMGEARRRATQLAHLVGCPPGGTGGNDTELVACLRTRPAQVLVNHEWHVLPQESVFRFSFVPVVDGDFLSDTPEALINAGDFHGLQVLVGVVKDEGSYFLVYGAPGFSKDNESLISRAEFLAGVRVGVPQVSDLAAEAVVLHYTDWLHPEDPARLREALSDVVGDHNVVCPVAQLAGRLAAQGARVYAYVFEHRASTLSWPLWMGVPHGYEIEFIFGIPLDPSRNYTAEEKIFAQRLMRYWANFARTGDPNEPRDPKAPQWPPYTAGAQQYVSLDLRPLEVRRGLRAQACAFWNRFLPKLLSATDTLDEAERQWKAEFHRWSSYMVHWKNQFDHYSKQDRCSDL

Structure (SMILES) | IC50
CN(C)Cc1ccc(CSCCNc2cc(NCCSCc3ccc(CN(C)C)o3)c([N+](=O)[O-])cc2[N+](=O)[O-])o1 | 28 nM
CN(C)Cc1ccc(CSCCCCCCCCCSCc2ccc(CN(C)C)o2)o1 | 460 nM
CN(C)Cc1ccc(CSCCCCCCCCSCc2ccc(CN(C)C)o2)o1 | 470 nM
CN(C)Cc1ccc(CSCCN/C=C(/NCCSCc2ccc(CN(C)C)o2)[N+](=O)[O-])o1 | 74 nM
CN(C)Cc1ccc(CSCCCCCCCSCc2ccc(CN(C)C)o2)o1 | 610 nM
CN(C)Cc1ccc(CSCCCCCCCCCCSCc2ccc(CN(C)C)o2)o1 | 1300 nM

Tested on: not listed separately
Assay: NMS/OXO-M values are calculated from the ratio of the respective apparent Ki values

Structure (SMILES) | Ratio
CN(C)Cc1ccc(CSCCCCSCc2ccc(CN(C)C)o2)o1 | 17

Molecular target: T5, Acetylcholinesterase
Assay: not given
Remark: another data set of the same source

Structure (SMILES) | IC50
CN(C)Cc1ccc(CSCc2ccc(CN(C)C)o2)o1 | 44000 nM
CN(C)Cc1ccc(CSCCSCc2ccc(CN(C)C)o2)o1 | 500 nM
CN(C)Cc1ccc(CSCc2cccc(CSCc3ccc(CN(C)C)o3)c2)o1 | 1500 nM
CN(C)Cc1ccc(CSCCCSCc2ccc(CN(C)C)o2)o1 | 330 nM
CN(C)Cc1ccc(CSCC/N=C/NCCSCc2ccc(CN(C)C)o2)o1 | 3000 nM
CN(C)Cc1ccc(CSCCCCSCc2ccc(CN(C)C)o2)o1 | 210 nM
CN(C)Cc1ccc(CSCCCCCSCc2ccc(CN(C)C)o2)o1 | 900 nM
CN(C)Cc1ccc(CSCc2ccc(-c3ccc(CSCc4ccc(CN(C)C)o4)cc3)cc2)o1 | 180 nM
CN(C)Cc1ccc(CSCc2ccc(CSCc3ccc(CN(C)C)o3)cc2)o1 | 260 nM
CN(C)Cc1ccc(CSCCCCCCSCc2ccc(CN(C)C)o2)o1 | 740 nM
CN(C)Cc1ccc(CSCc2ccccc2CSCc2ccc(CN(C)C)o2)o1 | 9000 nM
CN(C)Cc1ccc(CSCCNC(=O)NCCSCc2ccc(CN(C)C)o2)o1 | 48000 nM
CN(C)Cc1ccc(CSCCNC(=NC#N)NCCSCc2ccc(CN(C)C)o2)o1 | 290 nM

Species on record: Rattus norvegicus
Assay: not given

Structure (SMILES) | Ileal activity
CN(C)Cc1ccc(CSCCNc2cc(NCCSCc3ccc(CN(C)C)o3)c([N+](=O)[O-])cc2[N+](=O)[O-])o1 | <0.05 µM
CNC(=O)Oc1ccc2c(c1)[C@]1(C)CCN(C)[C@@H]1N2C [PHYSOSTIGMINE] | <0.005 µM
CN(C)Cc1ccc(CSCCSCc2ccc(CN(C)C)o2)o1 | <0.1 µM
CN(C)Cc1ccc(CSCCCSCc2ccc(CN(C)C)o2)o1 | <0.1 µM
CN(C)Cc1ccc(CSCCCCSCc2ccc(CN(C)C)o2)o1 | <1 µM
CN(C)Cc1ccc(CSCCCCCSCc2ccc(CN(C)C)o2)o1 | <0.1 µM
CN(C)Cc1ccc(CSCc2ccc(-c3ccc(CSCc4ccc(CN(C)C)o4)cc3)cc2)o1 | <0.01 µM
CN(C)Cc1ccc(CSCCCCCCCCCSCc2ccc(CN(C)C)o2)o1 | <0.1 µM
CN(C)Cc1ccc(CSCCCCCCCCSCc2ccc(CN(C)C)o2)o1 | <0.1 µM
CN(C)Cc1ccc(CSCCN/C=C(/NCCSCc2ccc(CN(C)C)o2)[N+](=O)[O-])o1 | <0.1 µM
CN(C)Cc1ccc(CSCCNC(=NC#N)NCCSCc2ccc(CN(C)C)o2)o1 | <0.01 µM

Molecular target: T1, Muscarinic acetylcholine receptor M2
Assay: biochemical
Remark: another data set of the same source
Description: Compound was evaluated for the competitive inhibition of [3H]methylscopolamine binding to Muscarinic acetylcholine receptor M2 of mouse cerebral cortex

Structure (SMILES) | IC50
CN(C)Cc1ccc(CSCCSCc2ccc(CN(C)C)o2)o1 | 1400 nM
CN(C)Cc1ccc(CSCCCSCc2ccc(CN(C)C)o2)o1 | 1500 nM
CN(C)Cc1ccc(CSCCCCSCc2ccc(CN(C)C)o2)o1 | 2200 nM
CN(C)Cc1ccc(CSCCCCCSCc2ccc(CN(C)C)o2)o1 | 520 nM
CN(C)Cc1ccc(CSCc2ccc(-c3ccc(CSCc4ccc(CN(C)C)o4)cc3)cc2)o1 | 1600 nM
CN(C)Cc1ccc(CSCc2ccc(CSCc3ccc(CN(C)C)o3)cc2)o1 | 550 nM
CN(C)Cc1ccc(CSCCCCCCSCc2ccc(CN(C)C)o2)o1 | 580 nM
CN(C)Cc1ccc(CSCCNC(=NC#N)NCCSCc2ccc(CN(C)C)o2)o1 | 470 nM

Molecular target: T3, Cholinesterase
Assay: not given
Remark: another data set of the same source

Structure (SMILES) | IC50
CN(C)Cc1ccc(CSCCNc2cc(NCCSCc3ccc(CN(C)C)o3)c([N+](=O)[O-])cc2[N+](=O)[O-])o1 | 25 nM
CN(C)Cc1ccc(CSCCCCCCCCCSCc2ccc(CN(C)C)o2)o1 | 1000 nM
CN(C)Cc1ccc(CSCCCCCCCCSCc2ccc(CN(C)C)o2)o1 | 1900 nM
CN(C)Cc1ccc(CSCCN/C=C(/NCCSCc2ccc(CN(C)C)o2)[N+](=O)[O-])o1 | 1300 nM
CN(C)Cc1ccc(CSCCCCCCCSCc2ccc(CN(C)C)o2)o1 | 1900 nM

Molecular target: T3, Cholinesterase
Assay: Ratio of IC50 values obtained for BChE/ AChE

Structure (SMILES) | Ratio
CN(C)Cc1ccc(CSCCNc2cc(NCCSCc3ccc(CN(C)C)o3)c([N+](=O)[O-])cc2[N+](=O)[O-])o1 | 0.89
CN(C)Cc1ccc(CSCCCCCCCCCSCc2ccc(CN(C)C)o2)o1 | 2.2
CN(C)Cc1ccc(CSCCCCCCCCSCc2ccc(CN(C)C)o2)o1 | 4
CN(C)Cc1ccc(CSCCN/C=C(/NCCSCc2ccc(CN(C)C)o2)[N+](=O)[O-])o1 | 18
CN(C)Cc1ccc(CSCCCCCCCSCc2ccc(CN(C)C)o2)o1 | 3.1

Species on record: Rattus norvegicus
Assay: Concentration required to potentiate the contraction of isolated rat ileum produced by 1*10e-7 M ACh by 20 percent; IA=Inactive
Format: functional

Structure (SMILES) | Ileal activity
CN(C)Cc1ccc(CSCCCCCCCSCc2ccc(CN(C)C)o2)o1 | inactive
